Experimental findings from ChEMBL document CHEMBL1140505, “D-phenylglycinol-derived non-covalent factor Xa inhibitors: effect of non-peptidic S4 linkage elements on affinity and anticoagulant activity” (2007) are described below.

Structures are written as SMILES.

Assay [1] has as its target Coagulation factor X (Homo sapiens) (UniProt P00742). Kind of assay: Binding affinity to F10a.
Assay [2] concerns Plasma. Kind of assay: Anticoagulant activity in human plasma assessed as concentration causing 1.5 times prolongation of prothrombin time. Type of assay: functional.
Assay [3] has as its system Plasma. Briefly: Anticoagulant activity in dog plasma assessed as concentration causing 1.5 times prolongation of prothrombin time. Type of assay: functional, Canis lupus familiaris.
The test system of assay [4] is Plasma. Kind of assay: Anticoagulant activity in monkey plasma assessed as concentration causing 1.5 times prolongation of prothrombin time. Type of assay: functional, Macaca mulatta.
Assay [5] has as its system Plasma. Kind of assay: Anticoagulant activity in rat plasma assessed as concentration causing 1.5 times prolongation of prothrombin time. Format: functional.

Sequence of Coagulation factor X (Homo sapiens) (P00742 41-179 limits assumed): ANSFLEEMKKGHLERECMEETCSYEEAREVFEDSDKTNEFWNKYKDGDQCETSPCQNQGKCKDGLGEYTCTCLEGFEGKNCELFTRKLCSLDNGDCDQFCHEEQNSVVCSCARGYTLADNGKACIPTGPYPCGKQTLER
Sequence of Coagulation factor X (Homo sapiens) (P00742 235-488 limits assumed): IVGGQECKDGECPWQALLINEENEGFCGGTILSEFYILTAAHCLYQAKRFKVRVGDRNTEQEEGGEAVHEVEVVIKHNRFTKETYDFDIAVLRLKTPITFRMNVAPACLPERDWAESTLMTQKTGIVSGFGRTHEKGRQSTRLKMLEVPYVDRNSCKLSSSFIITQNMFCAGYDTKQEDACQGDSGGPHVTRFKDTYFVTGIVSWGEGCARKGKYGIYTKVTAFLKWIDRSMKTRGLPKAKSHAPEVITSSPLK

Turning to `CCCC[C@H](COCC1CCN(C(C)C)CC1)NC(=O)c1ccc2c(Cl)c[nH]c2c1`, the Kapp in assay [1] is 41 10^6L/mol.

As for `CC(C)[C@H](COCC1CCN(C(C)C)CC1)NC(=O)c1ccc2c(Cl)c[nH]c2c1`, in assay [1], the Kapp was 14 10^6L/mol.

In the case of `COc1ccc(C(=O)N[C@@H](COCC2CCN(C(C)C)CC2)c2ccccc2)cc1`, the Kapp in assay [1] is 3 10^6L/mol. For the compound `CC(C)N1CCC(COCC(NC(=O)c2ccc3c(Cl)c[nH]c3c2)c2ccccc2F)CC1` (stereo not drawn), the Kapp in assay [1] is 650 10^6L/mol.

Take `CC(C)N1CCC(COCC(NC(=O)c2ccc3c(Cl)c[nH]c3c2)c2ccccc2Cl)CC1` (stereo not drawn): in assay [1], the Kapp is 850 10^6L/mol. Consider `Cc1c[nH]c2cc(C(=O)N[C@@H](COCC3CCN(C(C)C)CC3)c3ccccc3)ccc12`, for which, in assay [1], the Kapp is 160 10^6L/mol. Consider `CC(C)N1CCC(CCCC(NC(=O)c2ccc3c(Cl)c[nH]c3c2)c2ccccc2)CC1` (stereo not drawn), for which the Kapp in assay [1] is 700 10^6L/mol. With `CC(C)N1CCC(CN(C)C[C@H](NC(=O)c2ccc3c(Cl)c[nH]c3c2)c2ccccc2)CC1`, the Kapp in assay [1] is 60 10^6L/mol. On the same count and under the same terms, the figure for `CC(C)N1CCC(CNC[C@H](NC(=O)c2ccc3c(Cl)c[nH]c3c2)c2ccccc2)CC1` is 1200 10^6L/mol. Same read-out and setting: then `CCN1CCC(COCC(NC(=O)c2ccc3c(Cl)c[nH]c3c2)c2ccccc2Cl)CC1` (stereo not drawn), with 150 10^6L/mol. Regarding `O=C(NC(COCC1CCN(c2ccncc2)CC1)c1ccccc1Cl)c1ccc2c(Cl)c[nH]c2c1` (stereo not drawn), the Kapp in assay [1] is 1300 10^6L/mol. For `CC(C)N1CCC(CNC(=O)[C@H](NC(=O)c2ccc3c(Cl)c[nH]c3c2)c2ccccc2)CC1`, the Activity in the assay on Plasma [2] is 0.5 µM; in the assay on Plasma [3] it was 3.2 µM; with Plasma [4], 0.6 µM; in the assay with Plasma [5], 2.6 µM. Also, the Kapp in assay [1] was 460 10^6L/mol.

As to `CC(C)N1CCC(COC[C@H](NC(=O)c2ccc3cc[nH]c3c2)c2ccccc2)CC1`, the Kapp in assay [1] was 35 10^6L/mol.

As to `CC(C)N1CCC(COC[C@H](NC(=O)c2ccc3c(Cl)c[nH]c3c2)c2ccccc2)CC1`, the Activity in the assay with Plasma [2] is 0.4 µM; with Plasma [3], 0.8 µM; with Plasma [4], 0.4 µM; with Plasma [5], 0.6 µM. Also, the Kapp in assay [1] is 1700 10^6L/mol. `CN1CCC(COCC(NC(=O)c2ccc3c(Cl)c[nH]c3c2)c2ccccc2Cl)CC1` (stereo not drawn): the Kapp in assay [1] was 65 10^6L/mol.
